Measured values reported in patent US5925642A, “Pyridopyrimidines” (Byk Gulden Lomberg Chemische Fabrik GmbH, priority 1995, dated 1999).
Counter-ions that a name gives are not always drawn.

biological target: T1, p-glycoprotein (Homo sapiens, UniProt P08183); test: Measurement of P-glycoprotein inhibition (Rhodamine 123 accumulation); assay type: cell-based; details: not given
T1 construct: Multidrug-resistant and -sensitive cells of the T-lymphoblastoid leukemia cell lines CCRF-VCR 1000 and CCRF-CEM are withdrawn from the cell culture; endogenous in cells; host or cells: CCRF-VCR 1000 (multidrug-resistant); CCRF-CEM (sensitive)
Experimental: Multidrug-resistant and -sensitive cells of the T-lymphoblastoid leukemia cell lines CCRF-VCR 1000 and CCRF-CEM are withdrawn from the cell culture and harvested by centrifugation. The cells are taken up in RPMI medium (pH=7.3) without fetal calf serum and incubated at 37° C. for 30 min with the rising concentrations of resistance modulators. […] The excitation wavelength is 488 nm.
The number of the investigated compounds correspond to the numbers in the examples.

T1 sequence (P08183 whole entry): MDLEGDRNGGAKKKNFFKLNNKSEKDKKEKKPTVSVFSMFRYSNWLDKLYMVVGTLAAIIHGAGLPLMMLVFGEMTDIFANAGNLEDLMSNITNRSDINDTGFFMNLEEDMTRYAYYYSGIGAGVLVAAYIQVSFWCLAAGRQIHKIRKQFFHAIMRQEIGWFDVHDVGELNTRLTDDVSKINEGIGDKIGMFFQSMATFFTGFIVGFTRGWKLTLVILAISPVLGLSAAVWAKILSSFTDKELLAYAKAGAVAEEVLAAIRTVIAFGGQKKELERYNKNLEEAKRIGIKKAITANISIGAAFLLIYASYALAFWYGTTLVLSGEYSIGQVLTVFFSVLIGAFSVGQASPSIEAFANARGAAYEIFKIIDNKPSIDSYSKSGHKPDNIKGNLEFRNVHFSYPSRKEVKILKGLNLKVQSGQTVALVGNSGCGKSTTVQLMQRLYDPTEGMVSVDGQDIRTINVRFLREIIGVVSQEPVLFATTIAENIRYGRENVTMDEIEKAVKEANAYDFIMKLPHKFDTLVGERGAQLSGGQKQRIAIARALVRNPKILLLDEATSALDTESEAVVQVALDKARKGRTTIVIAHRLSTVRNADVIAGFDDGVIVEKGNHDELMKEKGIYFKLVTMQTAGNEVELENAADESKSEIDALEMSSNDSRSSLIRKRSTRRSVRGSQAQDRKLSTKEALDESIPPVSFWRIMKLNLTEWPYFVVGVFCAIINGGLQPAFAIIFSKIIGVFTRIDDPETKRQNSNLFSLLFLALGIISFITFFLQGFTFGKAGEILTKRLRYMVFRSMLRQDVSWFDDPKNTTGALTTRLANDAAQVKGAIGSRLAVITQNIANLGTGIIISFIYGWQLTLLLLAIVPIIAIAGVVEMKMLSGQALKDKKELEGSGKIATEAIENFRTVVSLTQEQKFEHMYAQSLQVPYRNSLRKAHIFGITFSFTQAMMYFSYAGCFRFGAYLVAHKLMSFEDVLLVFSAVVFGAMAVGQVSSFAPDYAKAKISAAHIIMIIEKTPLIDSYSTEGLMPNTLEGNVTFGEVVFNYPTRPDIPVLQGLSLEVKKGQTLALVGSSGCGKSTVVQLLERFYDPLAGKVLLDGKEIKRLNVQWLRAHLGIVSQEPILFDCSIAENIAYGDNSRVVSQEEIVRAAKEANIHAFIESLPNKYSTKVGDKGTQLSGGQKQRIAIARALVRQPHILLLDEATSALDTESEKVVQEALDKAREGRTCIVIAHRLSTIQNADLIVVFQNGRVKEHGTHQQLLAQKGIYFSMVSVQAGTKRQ

Question: With Cc1nc2nc(C)n(CCN3CCOCC3)c(=O)c2c(-c2cccc([N+](=O)[O-])c2)c1C(=O)CCCCCCCCCCN1CCC(c2ccccc2)(c2ccccc2)CC1 [Compound 1, 3,4-Dihydro-2,7-dimethyl-3-[2-(4-morpholinyl)ethyl]-5-3-nitrophenyl)-4-oxo-6-[1-oxo-11-(4,4-diphenyl-1-piperidinyl)undecyl]-pyrido[2,3-d]pyrimidine dihydrochloride] as the compound, how does the EC50 read?
Answer: The EC50 was 25.1 nM.

Question: How did the EC50 turn out when Cc1nc2nc(C)n(-c3ccccc3)c(=O)c2c(-c2cccc([N+](=O)[O-])c2)c1C(=O)CCCCCCCCCCN1CCC(c2ccccc2)(c2ccccc2)CC1 [Compound 2, 3,4-Dihydro-2,7-dimethyl-5-(3-nitrophenyl)-4-oxo-3-phenyl-6-[1-oxo-11-(4,4-diphenyl-1-piperidinyl)undecyl]pyrido[2,3-d]pyrimidine hydrochloride] was run?
Answer: Its EC50 is 63.1 nM.

Question: How did the EC50 turn out when CCCn1cnc2nc(C)c(C(=O)CCCCCCCN3CCC(c4ccccc4)(c4ccccc4)CC3)c(-c3cccc([N+](=O)[O-])c3)c2c1=O [Compound 3] was run?
Answer: The EC50 was 25.1 nM.

Question: CCCCCn1cnc2nc(C)c(C(=O)CCCCCCCN3CCC(c4ccccc4)(c4ccccc4)CC3)c(-c3cccc([N+](=O)[O-])c3)c2c1=O [Compound 4] was tested. Which EC50 did it give?
Answer: Its EC50 is 20 nM.

Question: CCCCn1cnc2nc(C)c(C(=O)CCCCCCCCCCN3CCC(c4ccccc4)(c4ccccc4)CC3)c(-c3cccc([N+](=O)[O-])c3)c2c1=O [Compound 6] was tested. Which EC50 did it give?
Answer: The EC50 was 15.8 nM.

Question: For CCCn1cnc2nc(C)c(C(=O)CCCCCCCCCCN3CCC(c4ccccc4)(c4ccccc4)CC3)c(-c3cccc([N+](=O)[O-])c3)c2c1=O [Compound 7], which EC50 is on record?
Answer: The EC50 was 50.1 nM.

Question: Which EC50 does the source give for CCCCCn1cnc2nc(C)c(C(=O)CCCCCCCCCCN3CCC(c4ccccc4)(c4ccccc4)CC3)c(-c3cccc([N+](=O)[O-])c3)c2c1=O [Compound 8] here?
Answer: Its EC50 is 31.6 nM.

Question: For Cc1nc2ncn(-c3ccccc3)c(=O)c2c(-c2cccc([N+](=O)[O-])c2)c1C(=O)CCCCCCCCCCN1CCC(c2ccccc2)(c2ccccc2)CC1 [Compound 9], which EC50 is on record?
Answer: Its EC50 is 63.1 nM.

Question: Cc1nc2ncn(Cc3ccccc3)c(=O)c2c(-c2cccc([N+](=O)[O-])c2)c1C(=O)CCCCCCCCCCN1CCC(c2ccccc2)(c2ccccc2)CC1 [Compound 10] was tested. Which EC50 did it give?
Answer: The EC50 was 25.1 nM.

Question: With COc1ccc(-n2cnc3nc(C)c(C(=O)CCCCCCCCCCN4CCC(c5ccccc5)(c5ccccc5)CC4)c(-c4cccc([N+](=O)[O-])c4)c3c2=O)cc1 [Compound 11] as the compound, how does the EC50 read?
Answer: The EC50 was 39.8 nM.

Question: How did the EC50 turn out when Cc1nc2ncn(CCN3CCOCC3)c(=O)c2c(-c2cccc([N+](=O)[O-])c2)c1C(=O)CCCCCCCCCCN1CCC(c2ccccc2)(c2ccccc2)CC1 [Compound 12] was run?
Answer: The EC50 was 25.1 nM.

Question: CCCn1c(C)nc2nc(C)c(C(=O)CCCCCCCN3CCC(c4ccccc4)(c4ccccc4)CC3)c(-c3cccc([N+](=O)[O-])c3)c2c1=O [Compound 13] was tested. Which EC50 did it give?
Answer: Its EC50 is 50.1 nM.

Question: For CCCCCn1c(C)nc2nc(C)c(C(=O)CCCCCCCN3CCC(c4ccccc4)(c4ccccc4)CC3)c(-c3cccc([N+](=O)[O-])c3)c2c1=O [Compound 14], which EC50 is on record?
Answer: Its EC50 is 79.4 nM.

Question: Cc1nc2nc(C)n(CCCN3CCOCC3)c(=O)c2c(-c2cccc([N+](=O)[O-])c2)c1C(=O)CCCCCCCCCCN1CCC(c2ccccc2)(c2ccccc2)CC1 [Compound 15] was tested. Which EC50 did it give?
Answer: Its EC50 is 31.6 nM.

Question: Which EC50 does the source give for Cc1nc2nc(C)n(CCN3CCCCC3)c(=O)c2c(-c2cccc([N+](=O)[O-])c2)c1C(=O)CCCCCCCCCCN1CCC(c2ccccc2)(c2ccccc2)CC1 [Compound 16] here?
Answer: Its EC50 is 79.4 nM.

Question: Which EC50 does the source give for Cc1nc2ncn(CCCN3CCOCC3)c(=O)c2c(-c2cccc([N+](=O)[O-])c2)c1C(=O)CCCCCCCCCCN1CCC(c2ccccc2)(c2ccccc2)CC1 [Compound 17] here?
Answer: The EC50 was 25.1 nM.

Question: Which EC50 does the source give for Cc1nc2nc(C)n(CCN3CCCCC3)c(=O)c2c(-c2cccc([N+](=O)[O-])c2)c1C(=O)CCCCCCCN1CCC(c2ccccc2)(c2ccccc2)CC1 [Compound 18] here?
Answer: The EC50 was 50.1 nM.

Question: CCCCn1c(C)nc2nc(C)c(C(=O)CCCCN3CCC(c4ccccc4)(c4ccccc4)CC3)c(-c3cccc([N+](=O)[O-])c3)c2c1=O [Compound 19] was tested. Which EC50 did it give?
Answer: Its EC50 is 100 nM.

Question: CCCCn1c(C)nc2nc(C)c(C(=O)CCCCCCCN3CCC(c4ccccc4)(c4ccccc4)CC3)c(-c3cccc([N+](=O)[O-])c3)c2c1=O [Compound 20] was tested. Which EC50 did it give?
Answer: Its EC50 is 31.6 nM.

Question: CCCCn1cnc2nc(C)c(C(=O)CCCCCCCN3CCC(c4ccccc4)(c4ccccc4)CC3)c(-c3cccc([N+](=O)[O-])c3)c2c1=O [Compound 21] was tested. Which EC50 did it give?
Answer: Its EC50 is 50.1 nM.

Question: With Cc1nc2ncn(Cc3ccccc3)c(=O)c2c(-c2cccc([N+](=O)[O-])c2)c1C(=O)CCCCCCCN1CCC(c2ccccc2)(c2ccccc2)CC1 [Compound 22] as the compound, how does the EC50 read?
Answer: The EC50 was 39.8 nM.

Question: Cc1nc2nc(C)n(Cc3ccccc3)c(=O)c2c(-c2cccc([N+](=O)[O-])c2)c1C(=O)CCCCCCCN1CCC(c2ccccc2)(c2ccccc2)CC1 [Compound 23] was tested. Which EC50 did it give?
Answer: Its EC50 is 50.1 nM.

same assay, conditions: CCRF-VCR 1000 and CCRF-CEM cells; Rhodamine 123 0.8 mg/l; 30 min preincubation, 1 h at 37° C.; RPMI without fetal calf serum, pH 7.3

Question: For Cc1nc2nc(C)n(CCN3CCOCC3)c(=O)c2c(-c2cccc([N+](=O)[O-])c2)c1C(=O)CCCCCCCN1CCC(c2ccccc2)(c2ccccc2)CC1 [Compound 5], which pEC50 is on record?
Answer: Its pEC50 is 6.8.
